The text below walks through data of patent US9035054B2, “Dinitroxide-type biradical compounds optimized for dynamic nuclear polarization (DNP)” (Universite D'Aix-Marseille, priority 2009, dated 2015).

The data set can be described thus: Solubility in water. The following applies: compared with TOTAPOL.

As to bis-TEMPO-bis-Ketal [bTbK], the solubility in water result was “less good solubility in water”.
